Where “and” joins values, the source holds several entries; their conditions need not be identical. Equal values may be shown once. Entries after “also recorded” stand apart in the source; their conditions may differ.
Experiments:
[1] = Absorption of TSC into the blood stream after intramuscular injection with gamma cyclodextrin; assay type: in vivo; conditions: rats
[2] = tested on: collagenase-injection model of ICH; assay: Collagenase-injection model of intracranial hemorrhage (ICH); assay type: in vivo, Sprague-Dawley rats
Procedure: Twelve male, Sprague-Dawley rats (Taconic, Inc.), weighing between 250 to 300 Grams were fed ad libitum and maintained on a 12-hour light/dark cycle. The rats were randomly assigned to 1 of 2 groups as follows: TSC-treated group (n=6) receiving intravenous infusion of TSC (total dose 0.091 mg/kg) and a Control group receiving intravenous infusion of 0.9% normal saline. A collagenase-injection model of ICH was utilized. Animals were anesthetized for 5 minutes with 5% halothane and endotracheally intubated. Anesthesia was maintained under 1 to 1.5% halothane with ventilation supported using Fi02 of 50%. Tail artery cannulation was applied to monitor the blood pressure and arterial blood gas, and a rectal temperature probe monitored body temperature. The right femoral vein was cannulated and connected to a microinjection infusion pump for TSC or saline administration. Body temperature was maintained at 37° C. with a heating pad. Rats were secured into a stereotactic frame with a midline incision over the skull and a cranial burr hole of 1 mm in diameter was drilled with 0.2 mm anterior and 3.5 mm right lateral to Bregma. A 26-gauge needle was inserted stereotactically into the right basal ganglion (5.5 mm ventral) and 5 μL collagenase (0.05 U bacteria collagenase; type IV, Sigma Chemical Co.) was infused at a rate of 1 μL/min using a microinfusion pump. The needle was kept in the striatum for an additional 5 minutes to limit collagenase flow back into the burr hole. After withdrawing the needle, the craniotomy was sealed with bone wax and the wound was sutured closed. TSC was injected intravenously 3 hours after ICH at a final total dosage of 0.091 mg/kg. The TSC formulation used was the sterile lyophilized TSC injectable formulation which was reconstituted with sterile water for injection and diluted with deionized water pH'd to 8.0 with dilute sodium carbonate. […] The outcomes assessed 48 hours post-ICH included hematoma volume, hemoglobin content representing hemorrhagic volume in the injected striatum, and tissue edema. […] Using Meta Morph image analysis software, the hemorrhage area for each section was measured and the total hematoma volume was calculated by summing the clot area in each section and multiplying by the thickness of the sections. A tissue edema index was calculated in each rat by measuring and comparing both of the hemispheres (Edema Index=(R−L)×100/L, R is right hemisphere volume, L is left hemisphere volume). A hemorrhagic volume index was quantified by measuring hemoglobin content in the injected hemisphere. […] This reaction converts hemoglobin to cyanomethemoglobin, the concentration of which can be assessed by the optical density (OD) of the solution at 550 nm wavelength. […]

[3] = Stability of TSC in formulation as a function of pH; assay type: physicochemical; conditions: formulation with glycine buffer; pH around 8.2+/-0.5 required
[4] = tested on: ischemic tissue in brain sections; assay: Ischemic stroke model: middle cerebral artery and two carotid arteries ligated for 2 hours; assay type: in vivo; conditions: TSC 0.1 mg/kg given after removal of 2 hour ligature; rats sacrificed after 24 hours
Procedure: In order to find new drugs for stoke victims, different animal models of ischemic stroke are used. In one model, blood vessels (middle cerebral artery, two carotid arteries) are ligated for a period of 2 hours. The ligature is then removed, a drug is given, and the animals (rats in this case) are sacrificed after 24 hours. The brain sections are stained and examined in order to determine the amount of damaged (ischemic) tissue.

[5] = Solubility of TSC in aqueous cyclodextrin solutions; assay type: physicochemical
[6] = tested on: rabbit small clot embolic stroke model (RSCEM); assay: Rabbit small clot embolic stroke model (RSCEM), quantal dose-response analysis of behavior; assay type: in vivo, Male New Zealand white rabbits; conditions: TSC 0.25 mg/kg IV bolus 1 hour post-embolization; behavior measured 24 hours following embolization; Mean±SEM
Text: Methods: This model uses rabbits and is known as RSCEM. Male New Zealand white rabbits were anesthetized using isoflurane (5% induction, 2% maintenance by facemask), the bifurcation of the right carotid artery was exposed and the external carotid was ligated just distal to the bifurcation, where a catheter was inserted into the common carotid and secured with ligatures. The incision was closed around the catheter with the distal ends left accessible outside the neck; the catheter was filled with heparinized saline and plugged with an injection cap. Rabbits were allowed to recover from anesthesia for a minimum of 2 h until they behaved normally. […] Microclots were re-suspended in PBS, then washed and allowed to settle, followed by aspiration of the supernatant and spiking of the microclots with tracer quantities of 15-μm radiolabeled microspheres. The specific activity of the particles was determined by removing an aliquot, after which appropriate volumes of PBS solution were added so that a predetermined weight of clot particles were rapidly injected through the catheter and both the syringe and catheter were flushed with 5 ml of normal saline. […]
These parameters are measures of the amount of microclots (in mg) that produce neurologic dysfunction in 50% of a group of animals (P50). The P50 values are then calculated as described previously and are presented as Mean±SEM. […]

[7] = TSC 0.1 mg/kg, rat collagenase model (summary in description)

absorption into the blood stream [1]: quick
stability versus pH [3]: more stable at higher pHs
TSC concentration reached in solution ([5]; TSC formulated with a cyclodextrin and mannitol): over 20 mg TSC/ml of solution
Structure (SMILES): CC(/C=C/C=C(\C)C(=O)[O-])=C\C=C\C=C(C)\C=C\C=C(/C)C(=O)[O-].[Na+].[Na+] [TSC, trans sodium crocetinate]
hemorrhage volume (amount of blood that hemorrhages into the brain) [2, 7]: decrease
reduction in amount of edema caused by the hemorrhagic stroke [2, 7]: about 50%
hematoma volume/size after ICH vs saline control ([2]; TSC total dose 0.091 mg/kg IV starting 3 hours after ICH, assessed 48 hours post-ICH, n=6, 0.091 mg/kg): slightly, but not statistically significantly, reduced; also recorded: did not differ
reduction in hemorrhagic volume (tissue hemoglobin content) vs saline control ([2]; TSC total dose 0.091 mg/kg IV starting 3 hours after ICH, assessed 48 hours post-ICH, n=6, p<0.05): approximately 20%
reduction in the amount of ischemic tissue [4]: about 60%
TSC concentration reached in aqueous solution ([5]; TSC and gamma-cyclodextrin): ≤ 44 milligrams of TSC per ml of solution
P50 (amount of microclots that produces neurologic dysfunction in 50% of a group of animals) [6]: 2.84±1.01 mg and 2.84±0.51 mg

— patent publication US11147859B2, “Diffusion enhancing compounds and their use alone or with thrombolytics” (Diffusion Pharmaceuticals LLC, priority 2009, dated 2021)
